Structures can show the parent of a compound that is named as a salt.
Tests used:
[1] = test system: Iron Overloaded Mouse Model; experiment: Liver iron removal from iron overloaded mouse model (ferrozine assay); assay type: in vivo, mice; settings: IV 100 mg/kg chelator on day 7 and day 10 after iron-dextran 100 mg/kg Fe
Description: LDFO formulations were prepared as described in Example 1. Both formulations were composed of HSPC/cholesterol (3/0.5 (mol/mol)). One formulation was prepared using 250 mM ammonium sulfate (LDFO-AS) as the trapping agent and the second formulation was prepared using 250 mM ascorbate phosphate (LDFO-AP) as the trapping agent and all other components and DFO loading procedures of the formulations were identical. Mice were overloaded with a single IV injection of iron-dextran at 100 mg/kg Fe. Overloaded mice were treated with each formulation IV at 100 mg/kg chelator on day 7 and day 10. The mice were sacrificed after the second treatment and the livers were analyzed for iron content using a ferrozine assay (Riemer et al. 2004)

[2] = Plasma PK of DFO after IV administration of liposomal DFO or Desferal to mice; assay type: in vivo, CF-1 female mice; settings: 100 mg/kg
Description: Liposomes containing egg PC/Chol (3 mol/2 mol, LDFO-1), egg PC/DOPG/Chol (2.7 mol/0.3 mol/2 mol, LDFO-2), and HSPC/Chol (3 mol/2 mol, LDFO-4) containing 500 mM ammonium sulfate were prepared as in Example 1. DFO was remote loaded as in Example 20.
After loading the liposomes were purified by dialysis versus HBS pH 6.5. The liposomes were sterilized by filtration through 0.2 um PES filters and analyzed for drug and lipid content. The liposomal DFO were administered to CF-1 female mice at 100 mg/kg (n=3) and at various times the animals were sacrificed and blood taken.
After processing to plasma, DFO was extracted from plasma by mixing with 6 volumes of methanol containing 0.1% trifluoroacetic acid in an epppendorf tube. The mixtures were vortexed twice for 10 seconds then placed at −80° C. for 1 h. The samples were thawed and centrifuged for 12,000 rpm for 10 min at 4° C. and the supernatant analyzed for DFO by HPLC as described herein. […] By comparison DFO was undetectable beyond 1 h after dosing with Desferal®.

Structure (SMILES) | mean liver iron content [1] | DFO in plasma ([2]; beyond 1 h after dosing) | initial dose (ID) of DFO retained in the plasma ([2]; IV, 24 h)
CC(=O)N(O)CCCCCNC(=O)CCC(=O)N(O)CCCCCNC(=O)CCC(=O)N(O)CCCCCN [free DFO, Deferoxamine] | 229 mg/kg |  | 
CC(=O)N(O)CCCCCNC(=O)CCC(=O)N(O)CCCCCNC(=O)CCC(=O)N(O)CCCCCN [Desferal, deferoxamine mesylate] |  | undetectable | undetectable

From US20170239182A1, “PHARMACEUTICAL FORMULATIONS OF AND METHODS TO PREPARE CHELATING AGENTS FOR EFFICIENT METAL REMOVAL TREATMENT SYSTEMS” (ZONEONE PHARMA, INC., priority 2014, published 2017)
